Usually melting point stands for the temperature of the solid-liquid transition.

The results in this text go back to a melting point compilation (Tetko et al.; mined from patent text by program, amines drawn as free bases though some values may be those of a salt).

SMILES strings stand for the structures.

`Cn1cnc2cc(C(c3ccccc3)n3ccnc3)ccc21` (centres undefined): the melting point was found to be 139 °C.
For the compound `CCOc1ccc2cc(-c3nc(-c4ccccc4)no3)c(=O)oc2c1`, the melting point is 229 °C.
The compound `CCc1cc(C)c(Br)c(CC)c1-c1c(OC(=O)OC)c(C)nn(C)c1=O` displayed a melting point of 113 to 115 °C.
The compound `COc1cc(C)c2c(Cl)c(OC)cc([N+](=O)[O-])c2n1` gave a melting point of 199 to 200 °C.
Then `COC(=O)c1cc2ccnc(NS(=O)(=O)c3cccs3)c2[nH]1`, with 159 to 160 °C; and `O=C(O)CCCC(c1ccccc1)c1ccccc1`, with 87 to 90 °C.
Then `COc1ccc(CNc2nc(-c3ccc(C(=O)O)cc3)nc3c2c2c(n3C(C)c3ccccc3)CCCC2)cc1Cl` (centres undefined), with 179 °C; and `CCN1CCc2nc(N3CCN(Cc4ccccc4)CC3)ncc2C1=O`, with 128 to 130 °C; and `CC(=O)NCCC1CCc2ccc3nc(CCc4ccccc4)oc3c21` (centres undefined), with 85 to 87 °C.
The same measure for `C=CCc1c(O)ccc2ccc(OCC(=O)OC)cc12`: 128 to 130 °C; for `CC1(C)C=C(c2ccccn2)c2cc(C(F)(F)F)ccc2OC1`: 90 °C.
In the case of `Oc1nn(-c2ccc(Cl)c(Cl)c2)cc1-c1ccccc1`, the melting point was in the range of 244 to 245 °C.
The same measure for `CCCCCc1ccc(Oc2cccc(C=C3SC(=S)NC3=O)c2)cc1`: 125 to 127 °C; for `CCOC(=O)c1cc(C(=O)NC)nc(C(=O)NC)c1NC`: 169 to 170 °C.
`Cc1nn(-c2cc(OC(C)C)c(Cl)cc2F)c(=O)[nH]1` returned a melting point of 120 to 124 °C.
On to `O=c1cnc2c([N+](=O)[O-])c(Cl)c(Cl)cc2[nH]1`, for which the melting point lay within 330 to 332 °C.
The same measure for `CCNc1cccc2c1C(=O)c1cccc(NCC)c1C2=O`: 193 to 195 °C; for `O=C(CCl)Nc1ccc2c(c1NC(=O)c1ccccc1F)C(=O)c1ccccc1C2=O`: 245 to 246 °C.
Turning to `CCOC(=O)CNC(=O)N(C(=O)NCC(=O)OCC)c1ccc(C(=O)/C=C/c2cc(OC)c(OC)c(-c3cccs3)c2)cc1`, the melting point is 83 to 86 °C.
Then `O=C(Nc1cc(S(=O)(=O)NC(CO)CO)sc1Cl)c1cnn2c(C(F)(F)F)cc(-c3ccc(C(F)(F)F)cc3)nc12`, with 225 °C; and `CN(C(=O)CCc1ccc(CN2CCC3(CCCC3)CC2)cc1)c1ccc(-c2ccc(Cl)cc2)cc1`, with 119 °C; and `CCCCN1C(=O)c2cnc(-c3ccccc3)nc2N(C(=O)CN2CCN(C)CC2)c2ccccc21`, with 90 to 94 °C.
For `CCOC(=O)CN1C(=O)C(NC(=O)Cc2ccc(Cl)cc2)N=C(c2ccccc2)c2ccccc21` (centres undefined), the melting point lay within 205 to 207 °C.
The same measure for `CCN(C)C1=NS(=O)(=O)c2cccc(OC)c21`: 154 to 156 °C; for `CC(C)(C)C(NC(=O)c1ccc(Cl)cc1)NC(=NC#N)NCc1ccc(Cl)cc1` (centres undefined): 173 to 175 °C.
With `O=C(O)COc1c(Br)cc(-c2c3ccccc3c(Br)c3oc4ccccc4c23)cc1Br`, the melting point was 250 to 252 °C.
Then `Cc1cc(=O)c(OCc2ccccc2)c(C(=O)O)o1`, with 173 to 175 °C; and `CNC(=O)n1sc(OCc2ccc(Cl)cc2)nc1=O`, with 145 °C; and `CC1=CC2C(=O)NC(=O)C2(Cc2ccccc2)C=C1` (centres undefined), with 128 to 130 °C.
Compound `CC(C)(C)c1cc(CCN2CCN(CCc3ccc(CC(=O)O)cc3)CC2)cc(C(C)(C)C)c1O` showed a melting point of 210 to 213 °C.
Then `O=C(Cn1nc(-c2ccccc2O)nc1-c1ccccc1O)NCC(O)CO` (centres undefined), with 180 to 181 °C; and `O=c1[nH]c2ccccc2n1CCCN1CCN(c2n[nH]c3ccccc23)CC1`, with 178 to 180 °C; and `CC(C)(C#N)c1ccc(C(=O)Nc2cn3cc(-n4ccnc4)ccc3n2)cc1`, with 241 to 244 °C.
The same measure for `Cn1c2ccc(Br)cc2c2cc(C(=O)N3CCOCC3)sc21`: 184 °C.
